Measurements published in patent US6855730B2, “3-methylidenyl-2-indolinone modulators of protein kinase” (Sugen, Inc., priority 1998, dated 2005).

These compounds were tested against T1, chimeric receptor containing the EGFR extracellular domain and intracellular HER2 kinase domain (Homo sapiens, UniProt P04626) (assay: EGF Receptor-HER2 chimeric receptor assay in whole cells (ELISA)). Conditions: read-out: HER-2 kinase IC50.
T1 construct: fused on or other part: EGFR ectodomain + HER2 intracellular part, ATP-site indolinones: HER2's kinase
T1 sequence (P04626 720-1255 limits assumed, change not shown): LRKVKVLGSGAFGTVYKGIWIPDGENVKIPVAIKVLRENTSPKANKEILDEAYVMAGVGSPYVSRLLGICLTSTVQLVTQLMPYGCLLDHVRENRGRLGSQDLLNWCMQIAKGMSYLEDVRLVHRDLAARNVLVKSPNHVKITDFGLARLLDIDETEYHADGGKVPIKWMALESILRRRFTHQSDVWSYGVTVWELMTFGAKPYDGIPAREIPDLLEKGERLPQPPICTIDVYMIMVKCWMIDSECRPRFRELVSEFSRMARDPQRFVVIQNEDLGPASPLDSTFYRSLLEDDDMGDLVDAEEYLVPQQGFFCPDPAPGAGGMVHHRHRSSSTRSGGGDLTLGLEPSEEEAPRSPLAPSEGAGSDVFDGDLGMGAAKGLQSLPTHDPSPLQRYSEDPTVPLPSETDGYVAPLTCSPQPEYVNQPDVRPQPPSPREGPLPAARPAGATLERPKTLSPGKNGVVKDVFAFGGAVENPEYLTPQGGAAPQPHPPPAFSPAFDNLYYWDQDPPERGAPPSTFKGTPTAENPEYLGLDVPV
Assay type: cell-based
Summary of the method: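 NIH3T3 cells overexpressing EGFR-extracellular/HER2-kinase chimera, seeded in 0.5% serum for ~40 h, were pretreated with compound (1% final DMSO) 2 h at 37 °C, then stimulated with 100 nM EGF for 5 min. Lysates captured on anti-EGFR plates; phosphotyrosine detected by anti-Ptyr/HRP ELISA at 410 nm as percent inhibition.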

SMILES | IC50
COc1c(C(C)C)cc(/C=C2/C(=O)Nc3cc(N)ccc32)cc1C(C)C [Example 32, 6-Amino-3-(3,5-diisoprotyl-4-methoxy-benzylidene)-1,3-dihydroindol-2-one] | 90.2 µM
CC(=O)Nc1ccc2c(c1)NC(=O)/C2=C\c1ccc2c(c1)CCC(C)(C)O2 [Example 33, N-[3-(2,2-Dimethylchroman-6-ylmethylene)-2-oxo-2,3-dihydro-1H-indol-6-yl]-acetamide] | 20.2 µM
COc1ccc(/C=C2/C(=O)Nc3ccccc32)cc1-c1ccsc1 [Example 35, 3-(4-Methoxy-3-thiophen-3-ylbenzylidene)-1,3-dihydroindol-2-one] | 20.7 µM
COc1cc(C)c(/C=C2/C(=O)Nc3ccc(Br)cc32)cc1C(C)C [Example 36, 5-Bromo-3-(5-isopropyl-4-methoxy-2-methyl-benzylidene)-1,3-dihydroindol-2-one] | 20.7 µM
COc1ccc(/C=C2/C(=O)Nc3ccc(F)cc32)cc1-c1ccccc1 [Example 37, 5-Fluoro-3-(6-methoxybiphenyl-3-ylmethylene)-1,3-dihydroindol-2-one] | 22.5 µM
COc1ccc(/C=C2\C(=O)Nc3cccc(C)c32)cc1C(C)C [Example 38, 3-(3-Isopropyl-4-methoxybenzylidene)-4-methyl-1,3-dihydroindol-2-one] | 32.3 µM
COc1cc(/C=C2/C(=O)Nc3ccccc32)c(-c2cccs2)cc1OC [Example 39, 3-(4,5-Dimethoxy-2-thiophen-2-ylbenzylidene)-1,3-dihydroindol-2-one] | 33.7 µM
CC(=O)Nc1ccc2c(c1)NC(=O)/C2=C/c1ccc(OCCN2CCOCC2)c(-c2cccs2)c1 [Example 40, N-{3-[4-(2-Morpholin-4-ylethoxy)-3-thiophen-2-ylbenzylidene]-2-oxo-2,3-dihydro-1H-indol-6-yl}-acetamide] | 36.6 µM
Cc1cccc2c1/C(=C/c1ccc3c(c1)CCC(C)(C)O3)C(=O)N2 [Example 41, 3-(2,2-Dimethylchroman-6-ylmethylene)-4-methyl-1,3-dihydroindol-2-one] | 39.8 µM
O=C1Nc2ccc(F)cc2/C1=C\c1ccc2c(c1)CCO2 [Example 42, 3-(2,3-Dihydrobenzofuran-5-ylmethylene)-5-fluoro-1,3-dihydroindol-2-one] | 47.5 µM
COc1ccc(/C=C2/C(=O)Nc3ccc(F)cc32)cc1C1CCCCC1 [Example 43, 3-(3-Cyclohexyl-4-methoxybenzylidene)-5-fluoro-1,3-dihydroindol-2-one] | 52.9 µM
COc1ccc(/C=C2/C(=O)Nc3ccc(F)cc32)cc1C(C)C [Example 44, 5-Fluoro-3-(3-isopropyl-4-methoxybenzylidene)-1,3-dihydroindol-2-one] | 53.6 µM
COc1cc(C)c(/C=C2/C(=O)Nc3ncccc32)cc1C(C)C [Example 45, 3-(5-Isopropyl-4-methoxy-2-methylbenzylidene)-1,3-dihydro-pyrrolo[2,3-b]pyridin-2-one] | 56.9 µM
CCOc1cccc(-c2cc(C=C3C(=O)Nc4ccccc43)ccc2OC)c1 [Example 46, 3-(3′-Ethoxy-6-methoxybiphenyl-3-ylmethylene)-1,3-dihydroindol-2-one] | 59.9 µM
COc1ccc(/C=C2/C(=O)Nc3ncccc32)cc1C1CCCC1 [Example 47, 3-(3-Cyclopentyl-4-methoxybenzylidene)-1,3-dihydropyrrolo[2,3-b]pyridin-2-one] | 60.6 µM
COc1ccc(/C=C2\C(=O)Nc3cccc(C)c32)cc1C1CCCC1 [Example 48, 3-(3-Cyclopentyl-4-methoxybenzylidene)-4-methyl-1,3-dihydroindol-2-one] | 65 µM
COc1cc(C=C2C(=O)Nc3ccccc32)c(-c2ccccc2OC)cc1OC [Example 49, 3-(4,5,2′-Trimethoxybiphenyl-2-ylmethylene)-1,3-dihydroindol-2-one] | 65.5 µM
CC(=O)Nc1ccc2c(c1)NC(=O)/C2=C/c1ccc(OCCN2CCOCC2)c(-c2ccsc2)c1 [Example 50, N-{3-[4-(2-Morpholin-4-ylethoxy)-3-thiophen-3-ylbenzylidene]-2-oxo-2,3-dihydro-1H-indol-6-yl}-acetamide] | 67.6 µM
COc1ccc(/C=C2/C(=O)Nc3ccc(Cl)cc32)cc1C1CCCCC1 [Example 51, 5-Chloro-3-(3-cyclohexyl-4-methoxybenzylidene)-1,3-dihydroindol-2-one] | 71.8 µM
COc1c(C(C)C)cc(/C=C2/C(=O)Nc3cc(NC(=O)OC(C)(C)C)ccc32)cc1C(C)C [Example 52, [3-(3,5-Diisopropyl-4-methoxybenzylidene)-2-oxo-2,3-dihydro-1H-indol-6-yl]-carbamic acid tert-butyl ester] | 72.8 µM
COc1c(C(C)C)cc(/C=C2\C(=O)Nc3cccc(C)c32)cc1C(C)C [Example 53, 3-(3,5-Diisopropyl-4-methoxybenzylidene)-4-methyl-1,3-dihydroindol-2-one] | 80.7 µM
COc1c(C(C)C)cc(/C=C2/C(=O)Nc3ccc(Br)cc32)cc1C(C)C [Example 54, 5-Bromo-3-(3,5-diisopropyl-4-methoxybenzylidene)-1,3-dihydroindol-2-one] | 85.6 µM

SMILES | IC50
CC(=O)Nc1ccc2c(c1)NC(=O)/C2=C/c1ccc(OCCN2CCOCC2)c(C(C)(C)C)c1 [Example 55, N-{3-[3-tert-Butyl-4-(2-morpholin-4-ylethoxy)-benzylidene]-2-oxo-2,3-dihydro-1H-indol-6-yl}-acetamide] | 89.3 µM
COc1c(C)cc(/C=C2/C(=O)Nc3ncccc32)cc1C [Example 56, 3-(4-Methoxy-3,5-dimethylbenzylidene)-1,3-dihydropyrrolo[2,3-b]pyridin-2-one] | 96.2 µM
CC(C)c1cc(/C=C2/C(=O)Nc3ccc(Br)cc32)cc(C(C)C)c1OCCN1CCOCC1 [Example 57, 5-Bromo-3-[3,5-diisopropyl-4-(2-morpholin-4-ylethoxy)benzylidene]-1,3-dihydroindol-2-one] | > 100 µM
CCOc1cccc(-c2cc(OC)c(OC)cc2/C=C2/C(=O)Nc3ccccc32)c1 [Example 58, 3-(3′-Ethoxy-4,5-dimethoxybiphenyl-2-ylmethylene)-1,3-dihydroindol-2-one] | > 100 µM
COc1ccc(/C=C2/C(=O)Nc3ccc(Cl)cc32)cc1-c1cccs1 [Example 59, 5-chloro-3-(4-Methoxy-3-thiophen-2-ylbenzylidene)-1,3-dihydroindol-2-one] | > 100 µM
COc1ccc(/C=C2/C(=O)Nc3ccc(Cl)cc32)cc1-c1cccnc1 [Example 60] | > 100 µM
COc1cccc(-c2cc(OC)c(OC)cc2/C=C2/C(=O)Nc3ccc(Cl)cc32)c1 [Example 61, 5-Chloro-3-(4,5-3′-Trimethoxybiphenyl-2-ylmethylene)-1,3-dihydroindol-2-one] | > 100 µM
COc1cc(/C=C2/C(=O)Nc3ccccc32)c(-c2ccc3ccccc3c2)cc1OC [Example 62, 3-(4,5-Dimethoxy-2-naphthalen-2-ylbenzylidene)-1,3-dihydroindol-2-one] | > 100 µM
COc1ccc2c(c1)NC(=O)/C2=C/c1ccc(OC)c(-c2ccsc2)c1 [Example 64, 6-Methoxy-3-(4-methoxy-3-thiophen-3-ylbenzylidene)-1,3-dihydroindol-2-one] | > 100 µM
COc1ccc(/C=C2/C(=O)Nc3ccccc32)cc1-c1ccccc1 [Example 65, 3-(6-Methoxybiphenyl-3-ylmethylene)-1,3-dihydroindol-2-one] | > 100 µM
O=C1Nc2ccccc2/C1=C\c1ccc2c(c1)CCO2 [Example 66, 3-(2,3-Dihydrobenzofuran-5-ylmethylene)-1,3-dihydroindol-2-one] | > 100 µM
COc1ccc(/C=C2/C(=O)Nc3ccc(Cl)cc32)cc1-c1ccccc1 [Example 67, 5-Chloro-3-(6-methoxybiphenyl-3-ylmethylene)-1,3-dihydroindol-2-one] | > 100 µM
COc1ccc(/C=C2\C(=O)Nc3cccc(C)c32)cc1C1CCCCC1 [Example 68, 3-(3-Cyclohexyl-4-methoxybenzylidene)-4-methyl-1,3-dihydroindol-2-one] | > 100 µM
Cc1cccc2c1/C(=C/c1ccc3c(c1)CCO3)C(=O)N2 [Example 69, 3-(2,3-Dihydrobenzofuran-5-ylmethylene)-4-methyl-1,3-dihydroindol-2-one] | > 100 µM
COc1ccc(/C=C2/C(=O)Nc3ncccc32)cc1C(C)C [Example 70, 3-(3-Isopropyl-4-methoxybenzylidene)-1,3-dihydropyrrolo[2,3-b]pyridine-2-one] | > 100 µM
COc1ccc(/C=C2/C(=O)Nc3ncccc32)cc1-c1ccccc1 [Example 71, 3-(6-Methoxybiphenyl-3-ylmethylene)-1,3-dihydropyrrolo[2,3-b]pyridin-2-one] | > 100 µM
COc1ccc(/C=C2/C(=O)Nc3ncccc32)cc1C1CCCCC1 [Example 72, 3-(3-Cyclohexyl-4-methoxybenzylidene)-1,3-dihydropyrrolo[2,3-b]pyridin-2-one] | > 100 µM
O=C1Nc2ncccc2/C1=C\c1ccc2c(c1)CCO2 [Example 73, 3-(2,3-Dihydrobenzofuran-5-ylmethylene)-1,3-dihydropyrrolo[2,3-b]pyridin-2-one] | > 50 µM
COc1c(C(C)C)cc(/C=C2/C(=O)Nc3ncccc32)cc1C(C)C [Example 74, 3-(3,5-Diisopropyl-4-methoxybenzylidene)-1,3-dihydropyrrolo[2,3-b]pyridin-2-one] | > 100 µM
Cc1cc(CCC(=O)O)c(/C=C2\C(=O)Nc3cc(-c4ccc(F)cc4)ccc32)[nH]1 [Example 107, 3-{2-[6-(4-Fluorophenyl)-2-oxo-1,2-dihydroindol-3-ylidenemethyl]-5-methyl-1H-pyrrol-3-yl}propionic acid] | > 100 µM
CCOC(=O)c1c(C)[nH]c(/C=C2\C(=O)Nc3cc(-c4ccc(F)cc4)ccc32)c1CCC(=O)O [Example 108, 4-(2-Carboxyethyl)-5-[6-(4-fluorophenyl)-2-oxo-1,2-dihydro-indol-3-ylidenemethyl]-2-methyl-1H-pyrrole-3-carboxylic acid ethyl ester] | > 100 µM
